Data on two compounds can be found in ChEMBL document CHEMBL4229452, “Expanding chemical space of DNA-binding molecules with three base-binding units” (Bioorg Med Chem Lett, 2018).

Common to all, as to assay type: nucleic-acid assay
The test system of test [1] is dsDNA. Kind of test: Binding affinity to 5'-(CTAA GGC AATG)-3'/5'-(CATT GGC TTAG)-3' duplex DNA (unknown origin) at < 10 uM by fluorescence titration method.
For test [2], the system named is dsDNA. Put plainly: Binding affinity to 5'-(CTAA CGG AATG)-3'/5'-(CATT CGG TTAG)-3' duplex DNA (unknown origin) at < 10 uM by fluorescence titration method.
Test [3] concerns dsDNA. Put plainly: Binding affinity to 5'-(CTAA CGG AATG)-3'/5'-(CATT CGG TTAG)-3' duplex DNA (unknown origin) assessed as change in melting temperature at 20 uM by UV-spectrophotometric method.
The subject of test [4] is dsDNA. Put plainly: Binding affinity to 5'-(CTAA CGG AATG)-3'/5'-(CATT CGG TTAG)-3' duplex DNA (unknown origin) assessed as apparent association […] constant at 60 uM by isothermal titration calorimetric method.
Test [5] has as its system dsDNA. Kind of test: Binding affinity to 5'-(CTAA GGC AATG)-3'/5'-(CATT GGC TTAG)-3' duplex DNA (unknown origin) assessed as change in melting temperature at 20 uM by UV-spectrophotometric method.
Test [6] deals with dsDNA. Kind of test: Binding affinity to 5'-(CTAA CGA AATG)-3'/5'-(CATT GGT TTAG)-3' duplex DNA (unknown origin) assessed as melting temperature at 5 uM by fluorimetric method.
Test [7] deals with dsDNA. Put plainly: Binding affinity to 5'-(CTAA CGG AATG)-3'/5'-(CATT GGC TTAG)-3' duplex DNA (unknown origin) assessed as melting temperature at 5 uM by fluorimetric method.
Test [8] relates to dsDNA. Kind of test: Binding affinity to 5'-(CTAA GGC AATG)-3'/5'-(CATT CGG TTAG)-3' duplex DNA (unknown origin) assessed as melting temperature at 5 uM by fluorimetric method.
Test [9] concerns dsDNA. Put plainly: Binding affinity to 5'-(CTAA GGC AATG)-3'/5'-(CATT GGC TTAG)-3' duplex DNA (unknown origin) at 7.5 uM by fluorescence titration method.
Test [10] concerns dsDNA. Put plainly: Binding affinity to 5'-(CTAA GGA AATG)-3'/5'-(CATT CGT TTAG)-3' duplex DNA (unknown origin) assessed as melting temperature at 5 uM by fluorimetric method.
The subject of test [11] is dsDNA. Put plainly: Binding affinity to 5'-(CTAA CGG AATG)-3'/5'-(CATT CGG TTAG)-3' duplex DNA (unknown origin) at 7.5 uM by fluorescence titration method.
Test [12] concerns dsDNA. Kind of test: Binding affinity to 5'-(CTAA GGT AATG)-3'/5'-(CATT CGA TTAG)-3' duplex DNA (unknown origin) assessed as melting temperature at 5 uM by fluorimetric method.
Test [13] has as its system dsDNA. Put plainly: Binding affinity to 5'-(CTAA CGT AATG)-3'/5'-(CATT GGA TTAG)-3' duplex DNA (unknown origin) assessed as melting temperature at 5 uM by fluorimetric method.

Active and inactive are the calls of the source. The calls are words filed in the database; no cut-off is given here.

For the compound `Cc1ccc2ccc(NC(=O)OCCCNCCCOC(=O)Nc3ccc4ccc(C)nc4n3)nc2n1`, the result in the test on dsDNA [1] and in the test with dsDNA [2] was Active. Moreover, the figures for the ΔTm with dsDNA [3] and in the test with dsDNA [5] were 23 °C and 2 °C, respectively. In the test with dsDNA [4], the Ka amounted to 2.09 ×10⁷ /M.

Turning to `Cc1ccc2ccc(NC(=O)OCCCN(CCCOC(=O)Nc3ccc4ccc(C)nc4n3)CCCOC(=O)Nc3ccc4ccc(C)nc4n3)nc2n1`, the Tm – broadly, the temperature at which the thermal transition is half complete – stood at 24.1 °C in the test on dsDNA [6]; 26.5 °C with dsDNA [7]; 34.7 °C in the test on dsDNA [8]; 26.7 °C in the test on dsDNA [10]; 27.1 °C with dsDNA [12]; 24.9 °C with dsDNA [13]. The ΔTm (in general, the change in melting temperature against a reference sample) with dsDNA [3] stood at 22.9 °C; in the test on dsDNA [5], 1.6 °C. In addition, the result in the test on dsDNA [9] and in the test on dsDNA [11] was Active. For the same compound, the result in the test with dsDNA [4] was inactive.
